Like-named read-outs stand apart in the source and are kept apart here.
Tests used:
serotonin transporter = molecular target: T1, serotonin transporter (Rattus norvegicus, UniProt P31652); assay: Inhibitory action on serotonin transporter (fluorescent substrate uptake in rat platelets); type: cell-based
T1 construct: evaluated using rat platelets expressing serotonin transporters; from tissue
Method: That is, the test compound was added to rat platelets, the fluorescent substance of a Neurotransmitter Transporter Activity Assay Kit (Molecular Devices, R8174) was added beginning after 15 minutes, and changes in fluorescent intensity from uptake of the fluorescent substance were measured over time to evaluate the inhibitory effect of the test compound on serotonin transporter.
2 Centrifugation was carried out at 350 g at room temperature for 5 minutes, and the supernatant containing platelet-rich plasma was collected in 15 ml falcon tubes.
3 Centrifugation was carried out at 2100 g at room temperature for 10 minutes to obtain platelets as a pellet. Ca-free K5 buffer was added in the amount of 0.7 times the amount of platelet-rich plasma obtained in operation 2, and the pellet was triturated by pipetting.
5 The fluorescent substance of a Neurotransmitter Transporter Activity Assay Kit was added, and changes in fluorescent intensity over time from uptake of the fluorescent substance through serotonin transporters were measured with a FDSS 6000 (Hamamatsu Photonics).

male BALB/c mice = assay: In vivo efficacy test by forced swimming; set-up: species or system mouse; settings: oral, 1 hour before test; Example 1 10, 30 or 100 mg/kg, paroxetine 30 or 100 mg/kg; last 4 minutes; FIG. 1
Method: After 1 hour, the mice were placed individually in glass cylinders (19 cm in height, 9 cm in diameter) holding 9 cm of water, and observed at 23° C. for 6 minutes, during which time their behavior was recorded with a video camera. The control group was given the same amount of vehicle (0.5% methyl cellulose solution, 10 mL/kg).
The immobility times during the last 4 minutes were calculated from the video recordings. The mice were considered to be immobile if the following three behavioral criteria were met: they stopped struggling, stopped climbing, and floated on the water basically immobile, with only the slight movement necessary to keep their heads above water.

CYP2C9 [1] = molecular target: T2, CYP2C9 (Homo sapiens, UniProt P11712); assay: Time-dependent CYP inhibition (Method 1), human hepatic microsome; type: in vitro ADME; settings: 30 min pre-incubation at 37° C., tolbutamide, n = 2
Method: (§2) The test substance was added to an enzyme solution (containing human hepatic microsome (0.2 mg/mL), 100 mM Kpi and 0.1 mM EDTA), and pre-incubated for 30 minutes at 37° C. in the presence of or absence of the coenzyme. The final concentration of the test substance was set at 0.1, 0.2, 0.4, 0.5, 1, 2, 10 or 50 μM. A NADPH generating system (60 mM MgCl2 solution containing 3.6 mM β-NADP^+, 90 mM glucose-6 phosphate and 1 Unit/mL glucose-6-phosphate dehydrogenase, incubated for 5 minutes to generate NADPH) was used as the coenzyme. After pre-incubation, part of the reaction solution was collected, diluted 10 times by mixing with a model substrate solution and the NADPH generating system, and then incubated for 10 minutes at 37° C. An equal amount of a mixed solution of acetonitrile and methanol (1:1, containing 0.05 μM dextrophan or 0.05 μM propranolol as an internal standard) was added to terminate the reaction, and metabolites of the model substrate in the reaction solution were measured by LC-MS/MS. […] The ratio relative to the amount of model substrate metabolites in the control test was given as residual activity. The ratio of residual activity in the presence of NADPH relative to residual activity in the absence of NADPH was evaluated, and the ratio of 80% or less was defined “+”, while the ratio of above 80% was defined as “−”.

CYP2C19 [2] = molecular target: T3, CYP2C19 (Homo sapiens, UniProt P33261); assay: as above; type: in vitro ADME; settings: 30 min pre-incubation at 37° C., S-mephenytoin, n = 2
Method: as §2

CYP2D6 [3] = molecular target: T4, CYP2D6 (Homo sapiens, UniProt P10635); assay: as above; type: in vitro ADME; settings: 30 min pre-incubation at 37° C., bufuralol, n = 2
Method: as §2

CYP3A4 [4] = molecular target: T5, CYP3A4 (Homo sapiens, UniProt P08684); assay: as above; type: in vitro ADME; settings: 30 min pre-incubation at 37° C., midazolam, n = 2
Method: as §2

CYP2C19 [5] = molecular target: T3, CYP2C19; assay: Competitive CYP inhibition (Method 2), human hepatic microsome; type: in vitro ADME
Method: (§1) The inhibition rate was determined from the amounts of model substrate metabolites with and without addition of the test substance at each test substance concentration, and the IC50 value was calculated from the inhibition rate (calculation method in accordance with Xenobiotica, 1999, 29(1), 53-75).

CYP2C9 [6] = molecular target: T2, CYP2C9; assay: as above; type: in vitro ADME
Method: as §1

CYP2D6 [7] = molecular target: T4, CYP2D6; assay: as above; type: in vitro ADME
Method: as §1

CYP3A4 [8] = molecular target: T5, CYP3A4; assay: as above; type: in vitro ADME
Method: as §1

CYP1A2 [9] = molecular target: T6, CYP1A2 (Homo sapiens, UniProt P05177); settings: 30 min pre-incubation at 37° C., phenacetin, n = 2
T6 sequence (P05177 1-516): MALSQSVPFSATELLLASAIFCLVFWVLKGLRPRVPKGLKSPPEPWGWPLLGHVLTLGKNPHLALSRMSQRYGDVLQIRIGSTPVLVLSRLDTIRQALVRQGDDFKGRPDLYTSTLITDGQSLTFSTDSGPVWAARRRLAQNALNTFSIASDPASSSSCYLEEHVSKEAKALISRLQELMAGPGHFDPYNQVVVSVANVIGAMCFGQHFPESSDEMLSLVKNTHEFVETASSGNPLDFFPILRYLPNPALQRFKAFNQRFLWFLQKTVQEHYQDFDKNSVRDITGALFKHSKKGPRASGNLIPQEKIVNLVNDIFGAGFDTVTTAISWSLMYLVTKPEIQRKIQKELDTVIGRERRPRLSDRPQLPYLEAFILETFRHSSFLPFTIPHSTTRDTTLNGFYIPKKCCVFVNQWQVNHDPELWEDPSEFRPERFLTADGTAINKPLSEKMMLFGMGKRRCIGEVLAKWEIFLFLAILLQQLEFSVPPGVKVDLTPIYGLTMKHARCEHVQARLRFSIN
Method: as §2

CYP1A2 [10] = molecular target: T6, CYP1A2; assay: Competitive CYP inhibition (Method 2), human hepatic microsome; type: in vitro ADME; set-up: containing human hepatic microsome (0.2 mg/mL); from tissue; host or cells: human hepatic microsomal fraction; settings: tested at 1 or 10 μM, phenacetin 10 μM, n = 2; read-out: CYP1A2 IC50 score (competitive inhibition)
Method: as §1

T2 sequence (P11712 whole entry): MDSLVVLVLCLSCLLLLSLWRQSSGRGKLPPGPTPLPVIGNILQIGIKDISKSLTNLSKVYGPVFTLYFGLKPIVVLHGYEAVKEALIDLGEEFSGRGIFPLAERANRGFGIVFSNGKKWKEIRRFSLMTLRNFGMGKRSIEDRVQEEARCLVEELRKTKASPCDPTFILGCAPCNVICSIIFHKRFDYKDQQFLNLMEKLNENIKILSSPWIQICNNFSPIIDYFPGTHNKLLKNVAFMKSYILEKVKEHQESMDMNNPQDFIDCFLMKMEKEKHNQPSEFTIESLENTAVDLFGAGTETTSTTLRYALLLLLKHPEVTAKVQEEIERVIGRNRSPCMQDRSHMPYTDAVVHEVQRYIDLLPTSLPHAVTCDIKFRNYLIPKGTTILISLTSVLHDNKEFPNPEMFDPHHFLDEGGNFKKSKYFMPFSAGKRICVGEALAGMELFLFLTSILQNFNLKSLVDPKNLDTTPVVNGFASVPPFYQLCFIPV
T4 sequence (P10635 whole entry): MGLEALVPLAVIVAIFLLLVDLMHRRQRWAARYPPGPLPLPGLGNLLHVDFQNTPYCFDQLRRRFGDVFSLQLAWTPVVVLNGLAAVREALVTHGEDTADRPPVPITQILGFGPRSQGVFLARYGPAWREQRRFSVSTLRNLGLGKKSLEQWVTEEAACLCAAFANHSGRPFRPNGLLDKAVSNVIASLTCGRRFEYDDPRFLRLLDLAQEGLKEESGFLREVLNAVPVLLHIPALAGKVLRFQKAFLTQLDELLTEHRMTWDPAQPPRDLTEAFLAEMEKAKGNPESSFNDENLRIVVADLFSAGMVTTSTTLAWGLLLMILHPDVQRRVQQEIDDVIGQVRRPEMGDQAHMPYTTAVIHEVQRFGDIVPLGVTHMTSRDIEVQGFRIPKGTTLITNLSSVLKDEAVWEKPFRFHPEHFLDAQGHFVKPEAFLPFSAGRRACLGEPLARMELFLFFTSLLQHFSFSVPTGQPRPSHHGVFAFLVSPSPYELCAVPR
T5 sequence (P08684 whole entry): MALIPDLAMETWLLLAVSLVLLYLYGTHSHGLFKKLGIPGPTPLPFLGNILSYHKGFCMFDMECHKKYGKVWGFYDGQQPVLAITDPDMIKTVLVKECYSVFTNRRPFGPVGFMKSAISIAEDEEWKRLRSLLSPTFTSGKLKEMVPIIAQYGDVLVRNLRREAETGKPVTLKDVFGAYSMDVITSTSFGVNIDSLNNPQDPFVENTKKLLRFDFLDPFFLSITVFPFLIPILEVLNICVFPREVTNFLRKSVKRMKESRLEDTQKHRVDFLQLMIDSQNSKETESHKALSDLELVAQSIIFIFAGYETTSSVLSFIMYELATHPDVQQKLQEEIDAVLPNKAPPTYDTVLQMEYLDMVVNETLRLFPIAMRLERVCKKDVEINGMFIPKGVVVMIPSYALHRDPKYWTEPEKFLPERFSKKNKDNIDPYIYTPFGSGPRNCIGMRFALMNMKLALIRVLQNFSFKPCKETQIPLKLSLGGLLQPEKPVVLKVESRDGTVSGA
T3 sequence (P33261 whole entry): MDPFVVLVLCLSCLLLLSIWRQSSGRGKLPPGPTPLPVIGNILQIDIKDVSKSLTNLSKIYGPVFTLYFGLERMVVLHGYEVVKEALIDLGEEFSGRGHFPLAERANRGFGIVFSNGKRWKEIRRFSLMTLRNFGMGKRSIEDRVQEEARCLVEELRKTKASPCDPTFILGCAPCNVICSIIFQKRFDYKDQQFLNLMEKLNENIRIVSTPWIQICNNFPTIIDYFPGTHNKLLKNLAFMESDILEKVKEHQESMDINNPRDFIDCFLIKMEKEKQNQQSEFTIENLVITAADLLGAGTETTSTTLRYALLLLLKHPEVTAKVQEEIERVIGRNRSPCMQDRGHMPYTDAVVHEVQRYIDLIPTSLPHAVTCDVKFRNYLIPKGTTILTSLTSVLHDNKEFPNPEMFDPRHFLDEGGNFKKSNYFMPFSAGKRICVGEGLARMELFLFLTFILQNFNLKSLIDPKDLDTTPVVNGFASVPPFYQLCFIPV
T1 sequence (P31652 whole entry): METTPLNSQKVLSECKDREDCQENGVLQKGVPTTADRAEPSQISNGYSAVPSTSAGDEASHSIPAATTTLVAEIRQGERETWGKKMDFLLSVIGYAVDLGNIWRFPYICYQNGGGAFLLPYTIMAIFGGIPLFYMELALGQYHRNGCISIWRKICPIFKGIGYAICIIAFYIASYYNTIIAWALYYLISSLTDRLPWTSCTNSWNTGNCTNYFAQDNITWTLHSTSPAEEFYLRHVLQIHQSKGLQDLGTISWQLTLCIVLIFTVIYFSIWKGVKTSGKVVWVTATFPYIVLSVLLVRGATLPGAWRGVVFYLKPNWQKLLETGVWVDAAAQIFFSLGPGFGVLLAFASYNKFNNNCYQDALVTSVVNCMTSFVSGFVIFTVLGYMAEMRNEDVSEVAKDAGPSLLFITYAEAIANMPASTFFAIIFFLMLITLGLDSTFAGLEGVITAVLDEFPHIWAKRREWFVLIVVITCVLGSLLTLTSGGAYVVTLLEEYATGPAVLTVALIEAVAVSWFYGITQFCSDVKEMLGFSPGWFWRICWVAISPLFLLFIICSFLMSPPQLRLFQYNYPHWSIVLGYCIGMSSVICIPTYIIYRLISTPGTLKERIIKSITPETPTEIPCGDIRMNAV

IC50 (CYP2C9 [6]; tested at 1 or 10 μM, tolbutamide 100 μM, n = 2, read-out: CYP2C9 IC50 score (competitive inhibition)) | SMILES | IC50 (serotonin transporter) | immobility time in forced swimming test (male BALB/c mice) | Ratio of residual CYP2C9 activity in presence vs absence of NADPH after pre-incubation (CYP2C9 [1]; 10 μM) | Ratio of residual CYP2C9 activity in presence vs absence of NADPH after pre-incubation (CYP2C9 [1]; 50 μM) | Ratio of residual CYP2C19 activity in presence vs absence of NADPH after pre-incubation (CYP2C19 [2]; 10 μM) | Ratio of residual CYP2C19 activity in presence vs absence of NADPH after pre-incubation (CYP2C19 [2]; 50 μM) | Ratio of residual CYP2D6 activity in presence vs absence of NADPH after pre-incubation (CYP2D6 [3]; 10 μM) | Ratio of residual CYP2D6 activity in presence vs absence of NADPH after pre-incubation (CYP2D6 [3]; 50 μM) | Ratio of residual CYP3A4 activity in presence vs absence of NADPH after pre-incubation (CYP3A4 [4]; 10 μM) | Ratio of residual CYP3A4 activity in presence vs absence of NADPH after pre-incubation (CYP3A4 [4]; 50 μM) | IC50 (CYP2C19 [5]) | IC50 (CYP2C9 [6]) | IC50 (CYP2D6 [7]) | IC50 (CYP3A4 [8]) | Ratio of residual CYP1A2 activity in presence vs absence of NADPH after pre-incubation (CYP1A2 [9]; 10 μM) | Ratio of residual CYP1A2 activity in presence vs absence of NADPH after pre-incubation (CYP1A2 [9]; 50 μM) | IC50 (CYP1A2 [10])
 | Fc1ccc([C@@H]2CCNC[C@H]2COc2ccc3c(c2)COC3)cc1 [Example 1, (3S,4R)-3-[(1,3-dihydro-2-benzofuran-5-yloxy)methyl]-4-(4-fluorophenyl)piperidine] | 0.0024 µM | dose-dependently suppressed immobility time | − (the ratio of above 80% was defined as “−”) | − (the ratio of above 80% was defined as “−”) | − (the ratio of above 80% was defined as “−”) | − (the ratio of above 80% was defined as “−”) | − (the ratio of above 80% was defined as “−”) | − (the ratio of above 80% was defined as “−”) | − (the ratio of above 80% was defined as “−”) | − (the ratio of above 80% was defined as “−”) | > 10 µM | > 10 µM | > 10 µM | > 10 µM | − (the ratio of above 80% was defined as “−”) | − (the ratio of above 80% was defined as “−”) | > 10 µM
> 10 µM | Fc1ccc([C@@H]2CCNC[C@H]2COc2ccc3c(c2)OCO3)cc1 [Paroxetine, (3S,4R)-3-[(2H-1,3-benzodioxol-5-yloxy)methyl]-4-(4-fluorophenyl)piperidine, reference compound] |  | dose-dependently suppressed immobility time |  |  |  |  |  |  |  |  |  |  |  |  |  |  | > 10 µM

From patent US8933100B2 (priority 2012, dated 2015)
